# Experimental data: publication PMC6522912, “Evaluation of the published kinase inhibitor set to identify multiple inhibitors of bacterial ATP-dependent mur ligases” (Journal of Enzyme Inhibition and Medicinal Chemistry, 2019)
# Biological target: E. coli MurF (Escherichia coli, UniProt P11880)
# Test: biochemical
# Details: 0.25 h, Table S1, PKIS screening; read-out: RA [%] at 100 µM MurF
# Sequence of E. coli MurF (P11880 whole entry): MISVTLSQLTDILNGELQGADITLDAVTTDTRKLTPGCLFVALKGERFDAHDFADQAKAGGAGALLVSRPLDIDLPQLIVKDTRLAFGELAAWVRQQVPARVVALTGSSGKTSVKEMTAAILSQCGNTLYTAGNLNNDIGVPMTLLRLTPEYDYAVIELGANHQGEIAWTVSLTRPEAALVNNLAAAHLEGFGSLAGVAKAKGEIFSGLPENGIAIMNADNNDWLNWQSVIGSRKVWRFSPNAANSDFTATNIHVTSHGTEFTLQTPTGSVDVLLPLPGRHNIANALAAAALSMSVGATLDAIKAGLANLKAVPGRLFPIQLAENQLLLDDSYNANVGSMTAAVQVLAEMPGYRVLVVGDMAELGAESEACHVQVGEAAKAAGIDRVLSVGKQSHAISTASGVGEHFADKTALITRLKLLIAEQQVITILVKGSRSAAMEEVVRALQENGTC
row,SMILES,remaining activity at 100 µM [%]
1,COc1cccc(-n2ncc3c(N/N=C/c4ccc(C)cc4)ncnc32)c1 [GW829877X],76
2,c1cc(-c2cnn3nc(N4CCOCC4)ccc23)nc(NC2CC2)n1 [GW708336X],98
3,Cn1cc(C=C2C(=O)Nc3cccnc32)c2ccccc21 [GW441756X],89
4,CS(=O)(=O)CCNCc1ccc(-c2ccc3ncnc(Nc4ccc(OCc5ccccc5)c(Cl)c4)c3c2)o1 [GW574783B],79
5,NC(=O)c1cc(-c2ccncc2)cc(-c2ccccc2)c1N [GSK625137A],84
6,Cc1ccc(NC(=O)c2ccnc(N3CCCC3)c2)cc1-c1ccc(C(=O)NCC2CC2)cc1 [GW769076X],62
7,CCn1c(-c2nonc2N)nc2cnc(Oc3cccc(NC(=O)c4ccc(OCCN5CCOCC5)cc4)c3)cc21 [GSK269962B],66
8,C#Cc1cccc(Nc2ncnc3ccc(OCCCCNCCS(C)(=O)=O)cc23)c1 [GW680191X],102
9,N#Cc1cccc(Nc2ncc(-c3ccccc3)o2)c1 [GW627834A],85
10,Nc1nc(-c2ccc3c(c2)C(=Cc2cc(Br)c(O)c(Br)c2)C(=O)N3)cs1 [GW407323A],41
11,NS(=O)(=O)c1ccc(N/N=C2\C(=O)Nc3ccc(Cl)cc32)cc1 [GW280670X],76
12,OCCCNc1nccc(-c2c(-c3ccc(F)cc3)nn3cc(C(F)(F)F)ccc23)n1 [GW569293E],72
13,CCN(CC)S(=O)(=O)c1ccc(OC)c(Nc2ncc(-c3ccccc3)o2)c1 [GW572401X],82
14,Nc1ncnc2occ(-c3ccc(NC(=O)Nc4cc(C(F)(F)F)ccc4F)cc3)c12 [GW770249A],63
15,CN(C)CCNC(=O)Nc1ccc(N(C)c2ccnc(Nc3ccc(CS(C)(=O)=O)cc3)n2)cc1 [GW830900A],75
16,c1cnn2ncc(-c3ccnc(Nc4ccc5c(c4)OCCO5)n3)c2c1 [GW806290X],71
17,Nc1nc(-c2ccc(F)cc2)c(-c2ccc3ncccc3n2)s1 [GW785804X],78
18,CCc1cccc(NC(=O)Nc2ccc(Oc3ccc4nc(NC(=O)OC)[nH]c4c3)cc2)c1 [GW673715X],68
19,COc1ccc2c(-c3ccnc(Nc4cccc(OC(F)(F)F)c4)n3)cnn2n1 [GW810372X],73

# Biological target: E. coli MurD (Escherichia coli, UniProt P14900)
# Test: biochemical
# Details: 0.25 h, Table S1, PKIS screening; read-out: RA [%] at 100 µM MurD
# Summary of the method: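 Reaction 15 min at 37 °C, then phosphate detected with Biomol green at 650 nm. Values are residual activity versus 5% DMSO carrier controls.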
# Sequence of E. coli MurD (P14900 whole entry): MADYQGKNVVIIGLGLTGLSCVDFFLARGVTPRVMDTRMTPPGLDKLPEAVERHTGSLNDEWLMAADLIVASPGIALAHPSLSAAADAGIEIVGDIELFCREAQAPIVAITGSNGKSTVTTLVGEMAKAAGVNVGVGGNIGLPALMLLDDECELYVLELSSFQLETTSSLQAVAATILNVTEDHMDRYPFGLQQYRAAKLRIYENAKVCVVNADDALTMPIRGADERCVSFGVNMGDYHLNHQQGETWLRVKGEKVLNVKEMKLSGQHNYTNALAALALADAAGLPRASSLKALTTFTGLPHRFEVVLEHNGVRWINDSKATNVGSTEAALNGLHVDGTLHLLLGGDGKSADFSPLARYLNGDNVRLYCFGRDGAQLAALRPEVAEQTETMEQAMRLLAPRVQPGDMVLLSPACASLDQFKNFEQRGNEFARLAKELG
row,SMILES,remaining activity at 100 µM [%]
1,COc1cccc(-n2ncc3c(N/N=C/c4ccc(C)cc4)ncnc32)c1 [GW829877X],85
2,c1cc(-c2cnn3nc(N4CCOCC4)ccc23)nc(NC2CC2)n1 [GW708336X],92
3,Cn1cc(C=C2C(=O)Nc3cccnc32)c2ccccc21 [GW441756X],99
4,CS(=O)(=O)CCNCc1ccc(-c2ccc3ncnc(Nc4ccc(OCc5ccccc5)c(Cl)c4)c3c2)o1 [GW574783B],37
5,NC(=O)c1cc(-c2ccncc2)cc(-c2ccccc2)c1N [GSK625137A],95
6,Cc1ccc(NC(=O)c2ccnc(N3CCCC3)c2)cc1-c1ccc(C(=O)NCC2CC2)cc1 [GW769076X],56
7,CCn1c(-c2nonc2N)nc2cnc(Oc3cccc(NC(=O)c4ccc(OCCN5CCOCC5)cc4)c3)cc21 [GSK269962B],58
8,C#Cc1cccc(Nc2ncnc3ccc(OCCCCNCCS(C)(=O)=O)cc23)c1 [GW680191X],93
9,N#Cc1cccc(Nc2ncc(-c3ccccc3)o2)c1 [GW627834A],75
10,Nc1nc(-c2ccc3c(c2)C(=Cc2cc(Br)c(O)c(Br)c2)C(=O)N3)cs1 [GW407323A],54
11,NS(=O)(=O)c1ccc(N/N=C2\C(=O)Nc3ccc(Cl)cc32)cc1 [GW280670X],99
12,OCCCNc1nccc(-c2c(-c3ccc(F)cc3)nn3cc(C(F)(F)F)ccc23)n1 [GW569293E],89
13,CCN(CC)S(=O)(=O)c1ccc(OC)c(Nc2ncc(-c3ccccc3)o2)c1 [GW572401X],60
14,Nc1ncnc2occ(-c3ccc(NC(=O)Nc4cc(C(F)(F)F)ccc4F)cc3)c12 [GW770249A],83
15,CN(C)CCNC(=O)Nc1ccc(N(C)c2ccnc(Nc3ccc(CS(C)(=O)=O)cc3)n2)cc1 [GW830900A],91
16,c1cnn2ncc(-c3ccnc(Nc4ccc5c(c4)OCCO5)n3)c2c1 [GW806290X],69
17,Nc1nc(-c2ccc(F)cc2)c(-c2ccc3ncccc3n2)s1 [GW785804X],82
18,CCc1cccc(NC(=O)Nc2ccc(Oc3ccc4nc(NC(=O)OC)[nH]c4c3)cc2)c1 [GW673715X],83
19,COc1ccc2c(-c3ccnc(Nc4cccc(OC(F)(F)F)c4)n3)cnn2n1 [GW810372X],70

# Biological target: E. coli MurC (Escherichia coli, UniProt P17952)
# Test: Malachite green inhibition assay, MurC
# Format: biochemical
# Details: 0.25 h, Table S1, PKIS screening; read-out: RA [%] at 100 µM MurC
# Sequence of E. coli MurC (P17952 whole entry): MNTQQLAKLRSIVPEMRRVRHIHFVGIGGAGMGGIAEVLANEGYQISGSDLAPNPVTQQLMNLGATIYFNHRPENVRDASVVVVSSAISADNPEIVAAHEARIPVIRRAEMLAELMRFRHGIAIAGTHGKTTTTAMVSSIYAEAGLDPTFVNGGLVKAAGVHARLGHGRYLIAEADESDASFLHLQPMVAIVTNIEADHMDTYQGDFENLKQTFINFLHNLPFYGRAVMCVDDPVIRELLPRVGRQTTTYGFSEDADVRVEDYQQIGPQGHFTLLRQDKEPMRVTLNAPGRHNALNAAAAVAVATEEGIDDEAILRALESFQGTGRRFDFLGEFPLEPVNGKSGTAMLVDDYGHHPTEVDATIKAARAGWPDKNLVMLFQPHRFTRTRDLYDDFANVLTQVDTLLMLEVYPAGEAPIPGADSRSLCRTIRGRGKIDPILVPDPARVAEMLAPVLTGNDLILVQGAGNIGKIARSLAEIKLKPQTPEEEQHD
row,SMILES,remaining activity at 100 µM [%]
1,COc1cccc(-n2ncc3c(N/N=C/c4ccc(C)cc4)ncnc32)c1 [GW829877X],70
2,c1cc(-c2cnn3nc(N4CCOCC4)ccc23)nc(NC2CC2)n1 [GW708336X],98
3,Cn1cc(C=C2C(=O)Nc3cccnc32)c2ccccc21 [GW441756X],75
4,CS(=O)(=O)CCNCc1ccc(-c2ccc3ncnc(Nc4ccc(OCc5ccccc5)c(Cl)c4)c3c2)o1 [GW574783B],58
5,NC(=O)c1cc(-c2ccncc2)cc(-c2ccccc2)c1N [GSK625137A],65
6,Cc1ccc(NC(=O)c2ccnc(N3CCCC3)c2)cc1-c1ccc(C(=O)NCC2CC2)cc1 [GW769076X],38
7,CCn1c(-c2nonc2N)nc2cnc(Oc3cccc(NC(=O)c4ccc(OCCN5CCOCC5)cc4)c3)cc21 [GSK269962B],57
8,C#Cc1cccc(Nc2ncnc3ccc(OCCCCNCCS(C)(=O)=O)cc23)c1 [GW680191X],75
9,N#Cc1cccc(Nc2ncc(-c3ccccc3)o2)c1 [GW627834A],78
10,Nc1nc(-c2ccc3c(c2)C(=Cc2cc(Br)c(O)c(Br)c2)C(=O)N3)cs1 [GW407323A],64
11,NS(=O)(=O)c1ccc(N/N=C2\C(=O)Nc3ccc(Cl)cc32)cc1 [GW280670X],100
12,OCCCNc1nccc(-c2c(-c3ccc(F)cc3)nn3cc(C(F)(F)F)ccc23)n1 [GW569293E],54
13,CCN(CC)S(=O)(=O)c1ccc(OC)c(Nc2ncc(-c3ccccc3)o2)c1 [GW572401X],63
14,Nc1ncnc2occ(-c3ccc(NC(=O)Nc4cc(C(F)(F)F)ccc4F)cc3)c12 [GW770249A],60
15,CN(C)CCNC(=O)Nc1ccc(N(C)c2ccnc(Nc3ccc(CS(C)(=O)=O)cc3)n2)cc1 [GW830900A],74
16,c1cnn2ncc(-c3ccnc(Nc4ccc5c(c4)OCCO5)n3)c2c1 [GW806290X],64
17,Nc1nc(-c2ccc(F)cc2)c(-c2ccc3ncccc3n2)s1 [GW785804X],100
18,CCc1cccc(NC(=O)Nc2ccc(Oc3ccc4nc(NC(=O)OC)[nH]c4c3)cc2)c1 [GW673715X],79
19,COc1ccc2c(-c3ccnc(Nc4cccc(OC(F)(F)F)c4)n3)cnn2n1 [GW810372X],46
